Data reported in the supplement of paper PMC10307832.

How the values were obtained:
Experiment in all cases: relative viability (nuclei count vs DMSO), 5 days (fraction); higher = more cells survive
[1] = compound: COc1cc2ncn(-c3cc(OCc4ccccc4C(F)(F)F)c(C(N)=O)s3)c2cc1OC + C[C@@H](Oc1cc(-c2cnn(C3CCNCC3)c2)cnc1N)c1c(Cl)ccc(F)c1Cl [Crizotinib] (partner 1 µM)
How it was run: (§1)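 After 5 days of treatment, lung cancer cells in 1536-well plates were fixed and stained in a single step (final 0.05% Triton X-100, 1% formaldehyde, 1 ug/ml Hoechst) and their nuclei counted on 4× images. Treatment had been applied by pin tool the day after seeding as one drug alone or as a fixed anchor-drug dose with five library-drug doses (not always all listed) in √10 steps. Relative viability is the nuclei count of treated wells divided by that of vehicle wells, and values are medians of duplicate plates.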

[2] = compound: COc1cc2ncn(-c3cc(OCc4ccccc4C(F)(F)F)c(C(N)=O)s3)c2cc1OC + O=C(CCCCCCC(=O)Nc1ccccc1)NO [Vorinostat] (partner 1 µM)
How it was run: as §1

[3] = compound: COc1cc2ncn(-c3cc(OCc4ccccc4C(F)(F)F)c(C(N)=O)s3)c2cc1OC + CC1(C)CCC(c2ccc(Cl)cc2)=C(CN2CCN(c3ccc(C(=O)NS(=O)(=O)c4ccc(N[C@H](CCN5CCOCC5)CSc5ccccc5)c(S(=O)(=O)C(F)(F)F)c4)cc3)CC2)C1 [Navitoclax] (partner 0.5 µM)
How it was run: as §1

[4] = compound: COc1cc2ncn(-c3cc(OCc4ccccc4C(F)(F)F)c(C(N)=O)s3)c2cc1OC + Cc1cc(Nc2cc(N3CCN(C)CC3)nc(Sc3ccc(NC(=O)C4CC4)cc3)n2)n[nH]1 [Tozasertib] (partner 0.1 µM)
How it was run: as §1

## A-427
[1]; first compound 0.05 µM
  relative viability: 0.917
[1]; first compound 0.1581 µM
  relative viability: 0.826
[1]; first compound 0.5 µM
  relative viability: 0.587
[1]; first compound 1.581 µM
  relative viability: 0.163
[1]; first compound 5 µM
  relative viability: 0.124
[2]; first compound 0.05 µM
  relative viability: 0.88
[2]; first compound 0.1581 µM
  relative viability: 0.947
[2]; first compound 0.5 µM
  relative viability: 0.684
[2]; first compound 1.581 µM
  relative viability: 0.194
[2]; first compound 5 µM
  relative viability: 0.154
[3]; first compound 0.05 µM
  relative viability: 1.06
[3]; first compound 0.1581 µM
  relative viability: 0.991
[3]; first compound 0.5 µM
  relative viability: 0.79
[3]; first compound 1.581 µM
  relative viability: 0.331
[3]; first compound 5 µM
  relative viability: 0.173
[4]; first compound 0.05 µM
  relative viability: 0.195
[4]; first compound 0.1581 µM
  relative viability: 0.188
[4]; first compound 0.5 µM
  relative viability: 0.176
[4]; first compound 1.581 µM
  relative viability: 0.162
[4]; first compound 5 µM
  relative viability: 0.142

## H3255
[1]; first compound 0.05 µM
  relative viability: 0.777
[1]; first compound 0.1581 µM
  relative viability: 0.981
[1]; first compound 0.5 µM
  relative viability: 0.574
[1]; first compound 1.581 µM
  relative viability: 0.238
[1]; first compound 5 µM
  relative viability: 0.229
[2]; first compound 0.05 µM
  relative viability: 0.806
[2]; first compound 0.1581 µM
  relative viability: 0.492
[2]; first compound 0.5 µM
  relative viability: 0.627
[2]; first compound 1.581 µM
  relative viability: 0.606
[2]; first compound 5 µM
  relative viability: 0.481
[3]; first compound 0.05 µM
  relative viability: 0.558
[3]; first compound 0.1581 µM
  relative viability: 0.314
[3]; first compound 0.5 µM
  relative viability: 0.363
[3]; first compound 1.581 µM
  relative viability: 0.125
[3]; first compound 5 µM
  relative viability: 0.101
[4]; first compound 0.05 µM
  relative viability: 0.563
[4]; first compound 0.1581 µM
  relative viability: 0.722
[4]; first compound 0.5 µM
  relative viability: 0.451
[4]; first compound 5 µM
  relative viability: 0.41

## HCC-44
[1]; first compound 0.05 µM
  relative viability: 0.818
[1]; first compound 0.1581 µM
  relative viability: 0.815
[1]; first compound 0.5 µM
  relative viability: 0.503
[1]; first compound 1.581 µM
  relative viability: 0.123
[1]; first compound 5 µM
  relative viability: 0.104
[2]; first compound 0.05 µM
  relative viability: 1.14
[2]; first compound 0.1581 µM
  relative viability: 1.03
[2]; first compound 0.5 µM
  relative viability: 0.852
[2]; first compound 1.581 µM
  relative viability: 0.331
[2]; first compound 5 µM
  relative viability: 0.247
[3]; first compound 0.05 µM
  relative viability: 1
[3]; first compound 0.1581 µM
  relative viability: 0.913
[3]; first compound 0.5 µM
  relative viability: 0.187
[3]; first compound 1.581 µM
  relative viability: 0.121
[3]; first compound 5 µM
  relative viability: 0.0869
[4]; first compound 0.05 µM
  relative viability: 0.983
[4]; first compound 0.1581 µM
  relative viability: 0.903
[4]; first compound 0.5 µM
  relative viability: 0.242
[4]; first compound 1.581 µM
  relative viability: 0.346
[4]; first compound 5 µM
  relative viability: 0.199

## NCI-H1734
[1]; first compound 0.05 µM
  relative viability: 0.656
[1]; first compound 0.1581 µM
  relative viability: 0.616
[1]; first compound 0.5 µM
  relative viability: 0.36
[1]; first compound 1.581 µM
  relative viability: 0.239
[1]; first compound 5 µM
  relative viability: 0.14
[2]; first compound 0.05 µM
  relative viability: 0.776
[2]; first compound 0.1581 µM
  relative viability: 0.902
[2]; first compound 0.5 µM
  relative viability: 0.365
[2]; first compound 1.581 µM
  relative viability: 0.202
[2]; first compound 5 µM
  relative viability: 0.137
[3]; first compound 0.05 µM
  relative viability: 0.824
[3]; first compound 0.1581 µM
  relative viability: 0.806
[3]; first compound 0.5 µM
  relative viability: 0.35
[3]; first compound 1.581 µM
  relative viability: 0.133
[3]; first compound 5 µM
  relative viability: 0.0981
[4]; first compound 0.05 µM
  relative viability: 0.272
[4]; first compound 0.1581 µM
  relative viability: 0.245
[4]; first compound 0.5 µM
  relative viability: 0.226
[4]; first compound 1.581 µM
  relative viability: 0.224
[4]; first compound 5 µM
  relative viability: 0.17

## NCI-H2228
[1]; first compound 0.05 µM
  relative viability: 0.542
[1]; first compound 0.1581 µM
  relative viability: 0.554
[1]; first compound 0.5 µM
  relative viability: 0.31
[1]; first compound 1.581 µM
  relative viability: 0.207
[1]; first compound 5 µM
  relative viability: 0.308
[2]; first compound 0.05 µM
  relative viability: 0.283
[2]; first compound 0.1581 µM
  relative viability: 0.575
[2]; first compound 0.5 µM
  relative viability: 0.196
[2]; first compound 1.581 µM
  relative viability: 0.111
[2]; first compound 5 µM
  relative viability: 0.104
[3]; first compound 0.05 µM
  relative viability: 1.05
[3]; first compound 0.1581 µM
  relative viability: 1.3
[3]; first compound 0.5 µM
  relative viability: 0.167
[3]; first compound 1.581 µM
  relative viability: 0.0999
[3]; first compound 5 µM
  relative viability: 0.105
[4]; first compound 0.05 µM
  relative viability: 0.291
[4]; first compound 0.1581 µM
  relative viability: 0.258
[4]; first compound 0.5 µM
  relative viability: 0.133
[4]; first compound 1.581 µM
  relative viability: 0.178
[4]; first compound 5 µM
  relative viability: 0.201

## COR-L23
[1]; first compound 0.05 µM
  relative viability: 0.667
[1]; first compound 0.1581 µM
  relative viability: 0.671
[1]; first compound 0.5 µM
  relative viability: 0.3
[1]; first compound 1.581 µM
  relative viability: 0.118
[1]; first compound 5 µM
  relative viability: 0.12
[2]; first compound 0.05 µM
  relative viability: 0.381
[2]; first compound 0.1581 µM
  relative viability: 0.416
[2]; first compound 0.5 µM
  relative viability: 0.162
[2]; first compound 1.581 µM
  relative viability: 0.0758
[2]; first compound 5 µM
  relative viability: 0.0932
[3]; first compound 0.05 µM
  relative viability: 1
[3]; first compound 0.1581 µM
  relative viability: 0.897
[3]; first compound 0.5 µM
  relative viability: 0.38
[3]; first compound 1.581 µM
  relative viability: 0.0788
[3]; first compound 5 µM
  relative viability: 0.091
[4]; first compound 0.05 µM
  relative viability: 0.213
[4]; first compound 0.1581 µM
  relative viability: 0.189
[4]; first compound 0.5 µM
  relative viability: 0.13
[4]; first compound 1.581 µM
  relative viability: 0.143
[4]; first compound 5 µM
  relative viability: 0.139

## NCI-H727
[1]; first compound 0.05 µM
  relative viability: 0.707
[1]; first compound 0.1581 µM
  relative viability: 0.901
[1]; first compound 0.5 µM
  relative viability: 0.58
[1]; first compound 1.581 µM
  relative viability: 0.247
[1]; first compound 5 µM
  relative viability: 0.266
[2]; first compound 0.05 µM
  relative viability: 1.28
[2]; first compound 0.1581 µM
  relative viability: 1.14
[2]; first compound 0.5 µM
  relative viability: 0.673
[2]; first compound 1.581 µM
  relative viability: 0.579
[2]; first compound 5 µM
  relative viability: 0.591
[3]; first compound 0.05 µM
  relative viability: 0.457
[3]; first compound 0.1581 µM
  relative viability: 0.618
[3]; first compound 0.5 µM
  relative viability: 0.464
[3]; first compound 1.581 µM
  relative viability: 0.166
[3]; first compound 5 µM
  relative viability: 0.185
[4]; first compound 0.05 µM
  relative viability: 0.639
[4]; first compound 0.1581 µM
  relative viability: 0.565
[4]; first compound 0.5 µM
  relative viability: 0.659
[4]; first compound 1.581 µM
  relative viability: 0.445
[4]; first compound 5 µM
  relative viability: 0.42

## NCI-H1993
[1]; first compound 0.05 µM
  relative viability: 0.898
[1]; first compound 0.1581 µM
  relative viability: 0.877
[1]; first compound 0.5 µM
  relative viability: 0.693
[1]; first compound 1.581 µM
  relative viability: 0.58
[1]; first compound 5 µM
  relative viability: 0.614
[2]; first compound 0.05 µM
  relative viability: 0.725
[2]; first compound 0.1581 µM
  relative viability: 0.736
[2]; first compound 0.5 µM
  relative viability: 0.384
[2]; first compound 1.581 µM
  relative viability: 0.389
[2]; first compound 5 µM
  relative viability: 0.348
[3]; first compound 0.05 µM
  relative viability: 1.22
[3]; first compound 0.1581 µM
  relative viability: 0.912
[3]; first compound 0.5 µM
  relative viability: 0.602
[3]; first compound 1.581 µM
  relative viability: 0.507
[3]; first compound 5 µM
  relative viability: 0.503
[4]; first compound 0.05 µM
  relative viability: 0.581
[4]; first compound 0.1581 µM
  relative viability: 0.613
[4]; first compound 0.5 µM
  relative viability: 0.566
[4]; first compound 1.581 µM
  relative viability: 0.637
[4]; first compound 5 µM
  relative viability: 0.661
